The record followed here is US7300946B2, “N-(substituted arylmethyl)-4-(disubstituted methyl) piperidines and pyridines” (Bayer CropScience AG, priority 2002, dated 2007).

The subject of this test is tobacco budworm (Heliothis virescens [Fabricius]). Put plainly: surface-treated diet test against the tobacco budworm. Type of test: in vivo. Conditions: tobacco budworm second instar larvae, surface-treated diet, 0.25 millimoles of candidate insecticide on the surface of the diet, five-day exposure; for Percent Mortality: compared to total number of insects infested; for Percent Growth Inhibition: inhibition of insect weight relative to untreated controls. The method, boiled down: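 Wheat germ artificial diet surface-treated with 40 µL of 50 mM DMSO stock diluted 1:7 in 1:1 water/acetone (0.25 millimolar on diet), or sub-multiples for rate tests. One second-instar larva per well, 25° C, 60% RH, 5 days; percent weight inhibition vs DMSO controls and percent mortality.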

Turning to `O=C(Nc1ccc(Cl)cc1)OC(c1ccc(C(F)(F)F)cc1)C1CCN(Cc2ccc(Oc3ccccc3)cc2)CC1` (centres unmarked) [Compound 545], the “Percent Mortality” value came to 100% and the “Percent Growth Inhibition” value stood at 100%.

For `O=C(Nc1cc(F)cc(F)c1)OC(c1ccc(C(F)(F)F)cc1)C1CCN(Cc2ccc(Oc3ccccc3)cc2)CC1` (centres unmarked) [Compound 546], the “Percent Mortality” value is 100% and the “Percent Growth Inhibition” value was determined as 100%.

For the compound `O=C(Nc1cc(F)cc(F)c1)OC(c1ccc(C(F)(F)F)cc1)C1CCN(Cc2ccc(Oc3ccccc3F)cc2)CC1` (centres unmarked) [Compound 547], the “Percent Mortality” value was 100% and the “Percent Growth Inhibition” value stood at 100%.

In the case of `O=C(Nc1cc(F)cc(F)c1)OC(c1ccc(C(F)(F)F)cc1)C1CCN(Cc2ccc(Oc3c(F)cccc3F)cc2)CC1` (centres unmarked) [Compound 548], the “Percent Mortality” value is given as 100% and the “Percent Growth Inhibition” value is 100%.

With `O=C(Nc1cc(F)cc(F)c1)OC(c1ccc(C(F)(F)F)cc1)C1CCN(Cc2ccc(OCc3ccccc3)cc2)CC1` (centres unmarked) [Compound 549], the “Percent Mortality” value came to 0% and the “Percent Growth Inhibition” value is 98%.

As for `O=C(Nc1cc(F)cc(F)c1)OC(c1ccc(C(F)(F)F)cc1)C1CCN(Cc2ccc(NC(=O)c3ccccc3Cl)cc2)CC1` (centres unmarked) [Compound 550], the “Percent Mortality” value is recorded as 100% and the “Percent Growth Inhibition” value amounted to 100%.

On to `O=C(Nc1cc(F)cc(F)c1)OC(c1ccc(C(F)(F)F)cc1)C1CCN(Cc2ccc(NC(=O)c3c(Cl)cccc3Cl)cc2)CC1` (centres unmarked) [Compound 551], for which the “Percent Mortality” value amounted to 100% and the “Percent Growth Inhibition” value came to 100%.

For the compound `O=C(Nc1cc(F)cc(F)c1)OC(c1ccc(C(F)(F)F)cc1)C1CCN(Cc2ccc(NC(=O)c3c(F)cccc3F)cc2)CC1` (centres unmarked) [Compound 552], the “Percent Mortality” value was 100% and the “Percent Growth Inhibition” value is on record as 100%.

Consider `COc1ccccc1C(=O)Nc1ccc(CN2CCC(C(OC(=O)Nc3cc(F)cc(F)c3)c3ccc(C(F)(F)F)cc3)CC2)cc1` (centres unmarked) [Compound 553], for which the “Percent Mortality” value amounted to 100% and the “Percent Growth Inhibition” value was 100%.

Take `COc1ccc(C(=O)Nc2ccc(CN3CCC(C(OC(=O)Nc4cc(F)cc(F)c4)c4ccc(C(F)(F)F)cc4)CC3)cc2)cc1` (centres unmarked) [Compound 554]: the “Percent Mortality” value is recorded as 0% and the “Percent Growth Inhibition” value turned out to be 99%.

Regarding `O=C(Nc1ccc(F)cc1)OC(c1ccc(C(F)(F)F)cc1)C1CCN(Cc2ccc(-n3cccn3)cc2)CC1` (centres unmarked) [Compound 555], the “Percent Mortality” value was 33% and the “Percent Growth Inhibition” value was 100%.

Consider `O=C(Nc1cc(F)cc(F)c1)OC(c1ccc(C(F)(F)F)cc1)C1CCN(Cc2ccc(-n3cccn3)cc2)CC1` (centres unmarked) [Compound 556], for which the “Percent Mortality” value was 100% and the “Percent Growth Inhibition” value amounted to 100%.

As for `O=C(Nc1ccc(F)cc1)OC(c1ccc(C(F)(F)F)cc1)C1CCN(Cc2ccc(-n3cncn3)cc2)CC1` (centres unmarked) [Compound 557], the “Percent Mortality” value is reported as 0% and the “Percent Growth Inhibition” value is given as 86%.

As to `O=C(Nc1cc(F)cc(F)c1)OC(c1ccc(C(F)(F)F)cc1)C1CCN(Cc2ccc(-n3cncn3)cc2)CC1` (centres unmarked) [Compound 558], the “Percent Mortality” value came to 17% and the “Percent Growth Inhibition” value is recorded as 99%.

On to `O=C(Nc1ccc(F)cc1)OC(c1ccc(C(F)(F)F)cc1)C1CCN(Cc2ccc(-c3csnn3)cc2)CC1` (centres unmarked) [Compound 559], for which the “Percent Mortality” value is given as 17% and the “Percent Growth Inhibition” value came out at 97%.

As for `O=C(Nc1cc(F)cc(F)c1)OC(c1ccc(C(F)(F)F)cc1)C1CCN(Cc2ccc(-c3csnn3)cc2)CC1` (centres unmarked) [Compound 560], the “Percent Mortality” value came to 33% and the “Percent Growth Inhibition” value is 96%.

As to `O=C(Nc1ccc(Cl)cc1)OC(c1ccc(C(F)(F)F)cc1)C1CCN(Cc2ccc(Oc3nsnc3Cl)cc2)CC1` (centres unmarked) [Compound 561], the “Percent Mortality” value was found to be 50% and the “Percent Growth Inhibition” value is on record as 100%.

Regarding `O=C(Nc1cc(F)cc(F)c1)OC(c1ccc(C(F)(F)F)cc1)C1CCN(Cc2ccc(NC3=NCCO3)cc2)CC1` (centres unmarked) [Compound 563], the “Percent Mortality” value is on record as 0% and the “Percent Growth Inhibition” value was determined as 96%.

Take `CCn1nnc(-c2ccc(CN3CCC(C(OC(=O)Nc4ccc(Cl)cc4)c4ccccc4)CC3)cc2)n1` (centres unmarked) [Compound 564]: the “Percent Mortality” value was found to be 100% and the “Percent Growth Inhibition” value worked out at 100%.

On to `CCn1nnc(-c2ccc(CN3CCC(C(OC(=O)Nc4ccc(C(F)(F)F)cc4)c4ccccc4)CC3)cc2)n1` (centres unmarked) [Compound 565], for which the “Percent Mortality” value was 100% and the “Percent Growth Inhibition” value was found to be 100%.

For the compound `CCn1nnc(-c2ccc(CN3CCC(C(OC(=O)Nc4cc(F)cc(C(F)(F)F)c4)c4ccccc4)CC3)cc2)n1` (centres unmarked) [Compound 566], the “Percent Mortality” value was determined as 100% and the “Percent Growth Inhibition” value turned out to be 100%.

Take `CCn1nnc(-c2ccc(CN3CCC(C(OC(=O)Nc4ccc(Cl)cc4)c4ccccc4Cl)CC3)cc2)n1` (centres unmarked) [Compound 567]: the “Percent Mortality” value came to 100% and the “Percent Growth Inhibition” value amounted to 100%.

In the case of `CCn1nnc(-c2ccc(CN3CCC(C(OC(=O)Nc4ccc(Cl)c(Cl)c4)c4ccccc4Cl)CC3)cc2)n1` (centres unmarked) [Compound 568], the “Percent Mortality” value was 100% and the “Percent Growth Inhibition” value is reported as 100%.

For `CCn1nnc(-c2ccc(CN3CCC(C(OC(=O)Nc4ccc(F)c(F)c4)c4ccccc4Cl)CC3)cc2)n1` (centres unmarked) [Compound 569], the “Percent Mortality” value is 100% and the “Percent Growth Inhibition” value turned out to be 100%.

As for `CCn1nnc(-c2ccc(CN3CCC(C(OC(=O)Nc4cc(F)cc(F)c4)c4ccccc4Cl)CC3)cc2)n1` (centres unmarked) [Compound 570], the “Percent Mortality” value was 100% and the “Percent Growth Inhibition” value is 100%.

For `CCn1nnc(-c2ccc(CN3CCC(C(OC(=O)Nc4ccc(C(F)(F)F)cc4)c4ccccc4Cl)CC3)cc2)n1` (centres unmarked) [Compound 571], the “Percent Mortality” value came out at 100% and the “Percent Growth Inhibition” value stood at 100%.

`CCn1nnc(-c2ccc(CN3CCC(C(OC(=O)Nc4ccc(Cl)cc4)c4ccc(Cl)c(Cl)c4)CC3)cc2)n1` (centres unmarked) [Compound 572]: the “Percent Mortality” value is reported as 100% and the “Percent Growth Inhibition” value was 100%.

For the compound `CCn1nnc(-c2ccc(CN3CCC(C(OC(=O)Nc4ccc(Cl)c(Cl)c4)c4ccc(Cl)c(Cl)c4)CC3)cc2)n1` (centres unmarked) [Compound 573], the “Percent Mortality” value is 100% and the “Percent Growth Inhibition” value is on record as 100%.

Take `CCn1nnc(-c2ccc(CN3CCC(C(OC(=O)Nc4ccc(F)c(F)c4)c4ccc(Cl)c(Cl)c4)CC3)cc2)n1` (centres unmarked) [Compound 574]: the “Percent Mortality” value was determined as 100% and the “Percent Growth Inhibition” value worked out at 100%.

Turning to `CCn1nnc(-c2ccc(CN3CCC(C(OC(=O)Nc4cc(F)cc(F)c4)c4ccc(Cl)c(Cl)c4)CC3)cc2)n1` (centres unmarked) [Compound 575], the “Percent Mortality” value was 100% and the “Percent Growth Inhibition” value turned out to be 100%.

`CCn1nnc(-c2ccc(CN3CCC(C(OC(=O)Nc4ccc(C(F)(F)F)cc4)c4ccc(Cl)c(Cl)c4)CC3)cc2)n1` (centres unmarked) [Compound 576]: the “Percent Mortality” value was 100% and the “Percent Growth Inhibition” value is 100%.

For the compound `CCn1nnc(-c2ccc(CN3CCC(C(OC(=O)Nc4ccc(Cl)cc4)c4cc(Cl)cc(Cl)c4)CC3)cc2)n1` (centres unmarked) [Compound 577], the “Percent Mortality” value amounted to 100% and the “Percent Growth Inhibition” value stood at 100%.

For `CCn1nnc(-c2ccc(CN3CCC(C(OC(=O)Nc4ccc(Cl)c(Cl)c4)c4cc(Cl)cc(Cl)c4)CC3)cc2)n1` (centres unmarked) [Compound 578], the “Percent Mortality” value amounted to 100% and the “Percent Growth Inhibition” value came out at 100%.

As for `CCn1nnc(-c2ccc(CN3CCC(C(OC(=O)Nc4ccc(F)c(F)c4)c4cc(Cl)cc(Cl)c4)CC3)cc2)n1` (centres unmarked) [Compound 579], the “Percent Mortality” value is 100% and the “Percent Growth Inhibition” value is 100%.

In the case of `CCn1nnc(-c2ccc(CN3CCC(C(OC(=O)Nc4cc(F)cc(F)c4)c4cc(Cl)cc(Cl)c4)CC3)cc2)n1` (centres unmarked) [Compound 580], the “Percent Mortality” value was 100% and the “Percent Growth Inhibition” value amounted to 100%.

In the case of `CCn1nnc(-c2ccc(CN3CCC(C(OC(=O)Nc4ccc(C(F)(F)F)cc4)c4cc(Cl)cc(Cl)c4)CC3)cc2)n1` (centres unmarked) [Compound 581], the “Percent Mortality” value came out at 100% and the “Percent Growth Inhibition” value is on record as 100%.

As for `CCn1nnc(-c2ccc(CN3CCC(C(OC(=O)Nc4ccc(Cl)cc4)c4cccc(F)c4)CC3)cc2)n1` (centres unmarked) [Compound 582], the “Percent Mortality” value is listed as 100% and the “Percent Growth Inhibition” value was determined as 100%.

For the compound `CCn1nnc(-c2ccc(CN3CCC(C(OC(=O)Nc4ccc(Cl)c(Cl)c4)c4cccc(F)c4)CC3)cc2)n1` (centres unmarked) [Compound 583], the “Percent Mortality” value is reported as 100% and the “Percent Growth Inhibition” value is reported as 100%.

For `CCn1nnc(-c2ccc(CN3CCC(C(OC(=O)Nc4ccc(F)c(F)c4)c4cccc(F)c4)CC3)cc2)n1` (centres unmarked) [Compound 584], the “Percent Mortality” value worked out at 100% and the “Percent Growth Inhibition” value is 100%.

Turning to `CCn1nnc(-c2ccc(CN3CCC(C(OC(=O)Nc4cc(F)cc(F)c4)c4cccc(F)c4)CC3)cc2)n1` (centres unmarked) [Compound 585], the “Percent Mortality” value was determined as 100% and the “Percent Growth Inhibition” value was 100%.

Turning to `CCn1nnc(-c2ccc(CN3CCC(C(OC(=O)Nc4cccc(C(F)(F)F)c4)c4cccc(F)c4)CC3)cc2)n1` (centres unmarked) [Compound 586], the “Percent Mortality” value is given as 100% and the “Percent Growth Inhibition” value is recorded as 100%.

As to `CCn1nnc(-c2ccc(CN3CCC(C(OC(=O)Nc4ccc(C(F)(F)F)cc4)c4cccc(F)c4)CC3)cc2)n1` (centres unmarked) [Compound 587], the “Percent Mortality” value stood at 100% and the “Percent Growth Inhibition” value is recorded as 100%.

Take `CCn1nnc(-c2ccc(CN3CCC(C(OC(=O)Nc4ccc(Cl)cc4)c4ccc(F)c(F)c4)CC3)cc2)n1` (centres unmarked) [Compound 588]: the “Percent Mortality” value turned out to be 100% and the “Percent Growth Inhibition” value was found to be 100%.
